Biological target: T1, Sphingosine kinase 1 (SK1) (Homo sapiens, UniProt Q9NYA1)
T1 construct: gene SPHK1
Test: recombinant SK1 luminescent ATP-detection kinase activity assay (Echelon kit)
Format: biochemical

T1 sequence (Q9NYA1 whole entry): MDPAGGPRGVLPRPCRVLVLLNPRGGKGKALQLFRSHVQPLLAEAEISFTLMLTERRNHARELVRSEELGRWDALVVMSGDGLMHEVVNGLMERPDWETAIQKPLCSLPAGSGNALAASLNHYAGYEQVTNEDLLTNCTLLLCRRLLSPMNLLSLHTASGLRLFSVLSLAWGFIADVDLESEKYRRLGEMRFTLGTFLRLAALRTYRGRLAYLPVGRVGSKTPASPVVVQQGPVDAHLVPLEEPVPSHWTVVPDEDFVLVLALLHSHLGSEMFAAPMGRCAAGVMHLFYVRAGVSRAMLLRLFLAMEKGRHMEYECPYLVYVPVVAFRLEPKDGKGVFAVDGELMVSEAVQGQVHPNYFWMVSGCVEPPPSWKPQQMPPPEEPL

## CC1=CC(C)=[N+]2C1=C(c1ccc(-c3cn(Cc4cc(C)cc(OCc5ccc(CN6CCC[C@@H]6CO)cc5)c4)nn3)cc1)c1c(C)cc(C)n1[B-]2(F)F [compound 2, (R)-(1-(4-((3-((4-(4-(5,5-Difluoro-1,3,7,9-tetramethyl-5H-4l4,5l4-dipyrrolo[1,2-c:2’,1’-f][1,3,2]diazaborinin-10-yl)phenyl)-1H-1,2,3-triazol-1-yl)methyl)-5-methylphenoxy)methyl)benzyl)pyrrolidin-2-yl)methanol]
  IC50: 0.0199 µM

From publication PMC6930633, “Synthesis and Biological Evaluation of BODIPY-PF-543” (Molecules, 2019)
